For 23 compounds, IC50 results are on record in US20230391786A1, “cGAS INHIBITORS” (Eli Lilly and Company, priority 2022, published 2023).

Test [1] concerns cGAS activity in THP1 cells (IFNb as marker). Put plainly: Cellular assay to measure cGAS activity (IFNb production in PMA-differentiated THP1 cells stimulated by RDG-Adenovirus-GFP). The class given is cell-based, human. To be noted: Homo sapiens, THP-1, THP1 cells, PMA differentiated, RDG-Adenovirus-GFP 1000 MOI, IFNb AlphaLISA, overnight incubation; read-out: IC50 (μM), Cellular assay for Compounds 95-348. An outline of the steps:
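PMA-differentiated THP1 cells were infected with RDG-Adenovirus-GFP at 1000 MOI for 4 h, then exposed overnight to test compounds. IFNb in the supernatant was quantified by AlphaLISA as a cGAS activity marker, and IC50 was fitted with a 4-parameter logistic equation.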
A general note: Alpha assays give light when donor and acceptor beads are brought close together.

Test [2] deals with recombinant human cGAS (Homo sapiens (Human), UniProt Q8N884). Put plainly: In vitro inhibition assay of cGAS activity (cGAMP production, RapidFire mass spectrometry). Format: biochemical. To be noted: 10 nM recombinant human cGAS, 60 nM 75-bp dsDNA, ATP, GTP, room temperature 3 hours, read-out: IC50 (μM), In vitro inhibition assay for Compounds 95-348. An outline of the steps:
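Full-length His6-tagged human cGAS (10 nM, E. coli-expressed) was incubated 3 h at room temperature with 60 nM 75-bp dsDNA, ATP, 50 μM GTP and compound at pH 7.5 with 5 mM MgCl2. cGAMP formation was measured by RapidFire mass spectrometry, and IC50 was taken from a 4-parameter logistic fit.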

Where a name gives a salt, the structure may show the parent alone.

recombinant human cGAS, sequence (Q8N884 whole entry): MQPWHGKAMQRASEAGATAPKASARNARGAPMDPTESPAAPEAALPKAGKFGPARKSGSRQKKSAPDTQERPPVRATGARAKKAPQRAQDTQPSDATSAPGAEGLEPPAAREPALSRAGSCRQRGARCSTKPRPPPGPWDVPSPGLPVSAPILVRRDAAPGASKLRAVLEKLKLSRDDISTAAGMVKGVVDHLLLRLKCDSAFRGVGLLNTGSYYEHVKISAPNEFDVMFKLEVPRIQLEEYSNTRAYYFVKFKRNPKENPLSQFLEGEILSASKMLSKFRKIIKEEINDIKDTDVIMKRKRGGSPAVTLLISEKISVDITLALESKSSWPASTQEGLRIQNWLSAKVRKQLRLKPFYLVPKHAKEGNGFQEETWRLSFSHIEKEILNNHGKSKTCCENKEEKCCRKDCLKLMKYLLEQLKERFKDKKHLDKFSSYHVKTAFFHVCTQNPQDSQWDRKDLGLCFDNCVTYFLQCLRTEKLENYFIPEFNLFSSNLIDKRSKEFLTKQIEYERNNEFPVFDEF

A word on the IC50: it is the point on the concentration scale where inhibition reaches its midpoint. For the compound `O=C(NCc1[nH]c2c(Cl)c(Cl)ccc2c1-c1cn[nH]c1)C1COC1` [Example 224, N-[[6,7-Dichloro-3-(1H-pyrazol-4-yl)-1H-indol-2-yl]methyl]oxetane-3-carboxamide], the figures for the IC50 in test [1] and in test [2] were 2.73 µM and 0.0704 µM, respectively.
With `O=C(Nc1cc(Cl)c(Cl)c2[nH]c(CCO)c(-c3cn[nH]c3)c12)C(F)F` [Example 225, N-[6,7-Dichloro-2-(2-hydroxyethyl)-3-(1H-pyrazol-4-yl)-1H-indol-4-yl]-2,2-difluoro-acetamide], the figures for the IC50 in test [1] and in test [2] were 0.23 µM and 0.0121 µM, respectively.
On the same counts, the results for `Clc1ccc2c(-c3cn[nH]c3)cn(-c3c[nH]nn3)c2c1` [Example 226, 6-Chloro-3-(1H-pyrazol-4-yl)-1-(1H-triazol-4-yl)indole] are 2.27 µM and 0.0563 µM.
On the same counts, the results for `NC(=O)Cn1cc(-n2cc(-c3cn[nH]c3)c3ccc(Cl)cc32)nn1` [Example 227, 2-[4-[6-Chloro-3-(1H-pyrazol-4-yl)indol-1-yl]triazol-1-yl]acetamide] are 1.6 µM and 0.0408 µM.
On the same counts, the results for `NCCn1cc(-n2cc(-c3cn[nH]c3)c3ccc(Cl)cc32)nn1` [Example 228, 2-[4-[6-Chloro-3-(1H-pyrazol-4-yl)indol-1-yl]triazol-1-yl] ethanamine formic acid salt] are 1.46 µM and 0.0493 µM.
On to `Cn1cc(-n2cc(-c3cn[nH]c3)c3ccc(Cl)cc32)nn1` [Example 230, 6-Chloro-1-(1-methyltriazol-4-yl)-3-(1H-pyrazol-4-yl)indole], for which the concentration for half-maximal inhibition (IC50) in test [1] stood at 2.02 µM; in test [2] it was 0.0693 µM.
On the same counts, the results for `CC(=S)Nc1cc(Cl)c(Cl)c2[nH]cc(-c3cn[nH]c3)c12` [Example 231, N-[6,7-Dichloro-3-(1H-pyrazol-4-yl)-1H-indol-4-yl]thioacetamide] are 1.01 µM and 0.0724 µM.
On the same counts, the results for `CC(=O)N[C@H]1CCn2c1c(-c1cn[nH]c1)c1c(OCC#N)cc(Cl)c(Cl)c12` [Example 232, (S)—N-(5,6-Dichloro-8-(cyanomethoxy)-9-(1H-pyrazol-4-yl)-2,3-dihydro-1H-pyrrolo[1,2-a]indol-1-yl)acetamide] are 0.668 µM and 0.00376 µM.
On the same counts, the results for `CCOc1cc(Cl)c(Cl)c2c1c(-c1cn[nH]c1)c1n2CC[C@@H]1NC(C)=O` [Example 233, (S)—N-(5,6-Dichloro-8-ethoxy-9-(1H-pyrazol-4-yl)-2,3-dihydro-1H-pyrrolo[1,2-a]indol-1-yl)acetamide] are 1.13 µM and 0.0806 µM.
With `CC(=O)N[C@@H]1CCn2c1c(-c1cn[nH]c1)c1c(OCC#N)cc(Cl)c(Cl)c12` [Example 234, (R)—N-(5,6-Dichloro-8-(cyanomethoxy)-9-(1H-pyrazol-4-yl)-2,3-dihydro-1H-pyrrolo[1,2-a]indol-1-yl)acetamide], the IC50 in test [1] worked out at 1.72 µM; in test [2], 0.0249 µM.
In the same order, the values of `CCOc1cc(Cl)c(Cl)c2c1c(-c1cn[nH]c1)c1n2CC[C@H]1NC(C)=O` [Example 235, (R)—N-(5,6-Dichloro-8-ethoxy-9-(1H-pyrazol-4-yl)-2,3-dihydro-1H-pyrrolo[1,2-a]indol-1-yl)acetamide] are 2.05 µM and 0.019 µM.
In the same order, the values of `CC(=O)NCC(=O)NC1CCn2c1c(-c1cn[nH]c1)c1ccc(Cl)c(Cl)c12` (stereo not shown) [Example 236, 2-Acetamido-N-(5,6-dichloro-9-(1H-pyrazol-4-yl)-2,3-dihydro-1H-pyrrolo[1,2-a]indol-1-yl)acetamide] are greater than 10 µM and 0.0331 µM.
In the same order, the values of `O=C(CO)NC1CCn2c1c(-c1cn[nH]c1)c1ccc(Cl)c(Cl)c12` (stereo not shown) [Example 237, N-(5,6-Dichloro-9-(1H-pyrazol-4-yl)-2,3-dihydro-1H-pyrrolo[1,2-a]indol-1-yl)-2-hydroxyacetamide] are 1.74 µM and 0.015 µM.
On to `CS(=O)(=O)NC1CCn2c1c(-c1cn[nH]c1)c1ccc(Cl)c(Cl)c12` (stereo not shown) [Example 238, N-(5,6-Dichloro-9-(1H-pyrazol-4-yl)-2,3-dihydro-1H-pyrrolo[1,2-a]indol-1-yl)methanesulfonamide], for which the values for the IC50 in test [1] and in test [2] were greater than 10 µM and 0.046 µM, respectively.
Turning to `CCC(=O)NC1CCn2c1c(-c1cn[nH]c1)c1ccc(Cl)c(Cl)c12` (stereo not shown) [Example 239, N-(5,6-Dichloro-9-(1H-pyrazol-4-yl)-2,3-dihydro-1H-pyrrolo[1,2-a]indol-1-yl)propionamide], the values for the IC50 in test [1] and in test [2] were greater than 10 µM and 0.0613 µM, respectively.
In the same order, the values of `COCCC(=O)NC1CCn2c1c(-c1cn[nH]c1)c1ccc(Cl)c(Cl)c12` (stereo not shown) [Example 240, N-(5,6-Dichloro-9-(1H-pyrazol-4-yl)-2,3-dihydro-1H-pyrrolo[1,2-a]indol-1-yl)-3-methoxypropanamide] are greater than 10 µM and 0.0642 µM.
On the same counts, the results for `CC(=O)N[C@H]1Cc2c(-c3cn[nH]c3)c3c(NC(=O)C(F)F)cc(Cl)c(Cl)c3n2C1` [Example 244, (S)—N-(2-Acetamido-5,6-dichloro-9-(1H-pyrazol-4-yl)-2,3-dihydro-1H-pyrrolo[1,2-a]indol-8-yl)-2,2-difluoroacetamide] are 0.531 µM and 0.0099 µM.
On the same counts, the results for `CC(=O)N[C@H]1Cc2c(-c3cn[nH]c3)c3c(OCC#N)cc(Cl)c(Cl)c3n2C1` [Example 245, (S)—N-(5,6-Dichloro-8-(cyanomethoxy)-9-(1H-pyrazol-4-yl)-2,3-dihydro-1H-pyrrolo[1,2-a]indol-2-yl)acetamide] are 0.872 µM and 0.0122 µM.
As for `CS(=O)(=O)NC1Cc2c(-c3cn[nH]c3)c3ccc(Cl)c(Cl)c3n2C1` (stereo not shown) [Example 246, N-(5,6-Dichloro-9-(1H-pyrazol-4-yl)-2,3-dihydro-1H-pyrrolo[1,2-a]indol-2-yl)methanesulfonamide], the figures for the IC50 in test [1] and in test [2] were 9.23 µM and 0.0313 µM, respectively.
On the same counts, the results for `N#CCOc1cc(Cl)c(Cl)c2[nH]nc(-c3cn[nH]c3)c12` [Example 249, 2-[[6,7-Dichloro-3-(1H-pyrazol-4-yl)-1H-indazol-4-yl]oxy]acetonitrile] are 2.32 µM and 0.0306 µM.
On the same counts, the results for `OCCCNc1cc(Cl)c(Cl)c2[nH]nc(-c3cn[nH]c3)c12` [Example 250, 3-[[6,7-Dichloro-3-(1H-pyrazol-4-yl)-1H-indazol-4-yl]amino]propan-1-ol] are 0.376 µM and 0.0052 µM.
On the same counts, the results for `CCN1CCn2c(c(-c3cn[nH]c3)c3c(NC(=O)C(F)F)cc(Cl)c(Cl)c32)C1=O` [Example 251, N-[6,7-Dichloro-2-ethyl-1-oxo-10-(1H-pyrazol-4-yl)-3,4-dihydropyrazino[1,2-a]indol-9-yl]-2,2-difluoro-acetamide] are 1.36 µM and 0.0265 µM.
With `COCCN1CCn2c(c(-c3cn[nH]c3)c3c(NC(=O)C(F)F)cc(Cl)c(Cl)c32)C1=O` [Example 252, N-[6,7-Dichloro-2-(2-methoxyethyl)-1-oxo-10-(1H-pyrazol-4-yl)-3,4-dihydropyrazino[1,2-a]indol-9-yl]-2,2-difluoro-acetamide], the IC50 worked out at 0.726 µM in test [1] and 0.033 µM in test [2].
